What was measured:
Format in all cases: binding
[1] = system: human monoclonal antibody CRJA
[2] = system: human monoclonal antibody CRJB
[3] = system: human monoclonal antibody CR57
[4] = system: human monoclonal antibody CRJB; remark: listed apart in the source
[5] = system: human monoclonal antibody CR57; remark: listed apart in the source
[6] = system: human monoclonal antibody CRJA; remark: listed apart in the source

Row | Sequence | Binding of CRJA (10 μg/ml) to looped/cyclic peptide (PEPSCAN-ELISA) [1] | Binding of CRJB (10 μg/ml) to looped/cyclic peptide (PEPSCAN-ELISA) [2] | Binding of CR57 to linear peptide (PEPSCAN-ELISA signal) [3] | Binding of CRJB to linear peptide (PEPSCAN-ELISA signal) [4] | Binding of CR57 (10 μg/ml) to looped/cyclic peptide (PEPSCAN-ELISA) [5] | Binding of CRJA to linear peptide (PEPSCAN-ELISA signal) [6] | Binding of CRJA to looped/cyclic peptide (PEPSCAN-ELISA signal) [1] | Binding of CRJB to looped/cyclic peptide (PEPSCAN-ELISA signal) [2] | Binding of human monoclonal antibody CR57 to linear peptide (PEPSCAN-ELISA signal) [3] | Binding of human monoclonal antibody CRJB to linear peptide (PEPSCAN-ELISA signal) [4] | Binding of CR57 to looped/cyclic peptide (PEPSCAN-ELISA signal) [5] | Binding of human monoclonal antibody CRJA to linear peptide (PEPSCAN-ELISA signal) [6] | Binding of CRJA (10 μg/ml) to looped/cyclic peptide (PEPSCAN-ELISA signal) [1] | Binding of CRJB (10 μg/ml) to looped/cyclic peptide (PEPSCAN-ELISA signal) [2] | Binding of CR57 (10 μg/ml) to looped/cyclic peptide (PEPSCAN-ELISA signal) [5] | binding of antibody CRJA to looped/cyclic peptide (PEPSCAN OD) [1]
1 | WCPPDQLVNLHDFRS | 111 | 106 | 101 | 119 | 105 | 114 |  |  |  |  |  |  |  |  |  | 
2 | MQTSNETKWCPPDQL | 74 | 33 | 104 | 132 | 138 | 112 |  |  |  |  |  |  |  |  |  | 
3 | FKDGDEAEDFVEVHL |  |  |  |  |  |  | 97 | 80 | 65 | 76 | 106 | 85 |  |  |  | 
4 | PDGNVLIPEMQSSLL | 112 | 108 | 87 | 129 | 110 | 99 |  |  |  |  |  |  |  |  |  | 
5 | TTTFKRKHFRPTPDA |  |  | 80 | 108 |  | 76 |  |  |  |  |  |  | 93 | 99 | 90 | 
6 | AENYTNFVGYVTTTF |  |  | 66 | 106 |  | 74 |  |  |  |  |  |  | 46 | 68 | 58 | 
7 | TPDACRAAYNWKMAG |  |  | 92 | 132 |  | 132 |  |  |  |  |  |  | 111 | 90 | 125 | 
8 | DACRAAYNWKMAGDP |  |  | 84 | 113 |  | 83 |  |  |  |  |  |  | 110 | 77 | 133 | 
9 | YTNFVGYVTTTFKRK |  |  | 51 | 104 |  | 76 |  |  |  |  |  |  | 72 | 90 | 71 | 
10 | TIWMPENPRLGMSCD |  |  | 69 | 106 |  | 93 |  |  |  |  |  |  | 102 | 82 | 97 | 
11 | FTNSRGKRASKGSET |  |  | 83 | 111 |  | 90 |  |  |  |  |  |  | 88 | 82 | 89 | 
12 | SFRRLSHLRKLVPGF | 320 | 87 | 92 | 110 | 143 | 75 |  |  |  |  |  |  |  |  |  | clearly bound
13 | RASKGSETCGFVDER | 100 | 90 | 86 | 110 | 105 | 90 |  |  |  |  |  |  |  |  |  | 
14 | RGKRASKGSETCGFV | 102 | 68 | 75 | 104 | 101 | 87 |  |  |  |  |  |  |  |  |  | 
15 | DEAEDFVEVHLPDVH |  |  |  |  |  |  | 98 | 104 | 68 | 136 | 89 | 105 |  |  |  | 
16 | LMEADAHYKSVRTWN | 43 | 72 | 73 | 107 | 41 | 46 |  |  |  |  |  |  |  |  |  | 
17 | FPIYTILDKLGPWSP |  |  | 42 | 105 |  | 88 |  |  |  |  |  |  | 57 | 63 | 65 | 
18 | KMAGDPRYEESLHNP |  |  | 62 | 102 |  | 48 |  |  |  |  |  |  | 38 | 45 | 49 | 
19 | VEELVRKREECLDAL | 69 | 27 | 58 | 111 | 55 | 84 |  |  |  |  |  |  |  |  |  | 
20 | GYILAIKMNGFTCTG |  |  | 75 | 90 |  | 73 |  |  |  |  |  |  | 72 | 61 | 87 | 
21 | YMELKVGYILAIKMN |  |  | 78 | 114 |  | 96 |  |  |  |  |  |  | 76 | 83 | 93 | 
22 | AMQTSNETKWCPPDQ | 90 | 58 | 104 | 114 | 84 | 85 |  |  |  |  |  |  |  |  |  | 
23 | VSFRRLSHLRKLVPG | 99 | 94 | 90 | 111 | 141 | 55 |  |  |  |  |  |  |  |  |  | 

— patent US20060263802A1 (priority 2003, published 2006)
